Measurements reported in article PMC6270011, “Design and Synthesis of Arylthiophene-2-Carbaldehydes via Suzuki-Miyaura Reactions and Their Biological Evaluation” (Molecules, 2013).
Values after ≈ are worked out from the molar mass of the structure shown. Where two headings read alike, the source gives them in different places.

Experiments:
Salmonella typhi = test: Antibacterial activity (disc / inhibition zone) against Salmonella typhi; conditions: Salmonella enterica, read-out: Inhibition zone, S. typhi
Pseudomonas aeruginosa = test: Antibacterial activity (disc / inhibition zone) against Pseudomonas aeruginosa; conditions: read-out: Inhibition zone, P. aeruginosa
Shigella dysenteriae = test: Antibacterial activity (disc / inhibition zone) against Shigella dysenteriae; conditions: read-out: Inhibition zone, S. dysenteriae
[1] = Nitric oxide (NO) scavenging assay; type: biochemical
Description: Nitric oxide (NO) is a free radical causing inflammatory disorders and cancer in the human body when sodium nitroprusside decomposes to produce nitric oxide. The antioxidant activity of various thiophene derivatives has been reported in the literature and it has also been observed that compounds with high antioxidant activity served as antitumor agents. The newly synthesized compounds reacted directly with nitric oxide and inhibited nitrite formation in an excellent way.
The reaction mixtures comprising sample solution (2 µL), phosphate buffer (17 µL) and sodium nitroprusside (20 µL) were incubated at 37 °C for 2 h in well plates. Then Griess reagent (20 µL, 0.3% sulphanilic acid in glacial acetic acid + 0.1% naphthylethylenediamine (NED): equal volumes of both solutions mixed just before use) was added to each well plate and the mixture kept at room temperature for 20 min to develop the color. The absorbance was measured at 528 nm by using an ELISA reader. The results were processed using Gen 5 software. All the reactions were performed in triplicate. Positive control (containing known antioxidant) and control (containing all samples) were run in parallel. Negative control was used to calibrate the instrument. The % age antioxidant activity was determined by using the following formula: % antioxidant activity = [(Absorbance of control − absorbance of sample)/(Absorbance of control)] × 100

Bacillus subtilis = test: Antibacterial activity (disc / inhibition zone) against Bacillus subtilis; conditions: read-out: Inhibition zone, B. subtilis
Escherichia coli = test: Antibacterial activity (disc / inhibition zone) against Escherichia coli; conditions: read-out: Inhibition zone, E.coli
Gram-negative bacteria = test: Antibacterial activity against Gram-negative bacteria (strain not named); type: cell-based
[2] = test system: human red blood cells (erythrocytes); type: cell-based; conditions: human erythrocytes, 37 °C, 35 min
Description: Three mL of freshly obtained human blood was placed in heparinized tubes to avoid coagulation, gently mixed and poured into a sterile 15 mL Falcon tube and centrifuged for 5 min at 1,000 ×g. The supernatant was discarded and red blood cells were washed three times with chilled (4 °C) sterile isotonic phosphate buffer saline pH 7.4 (5 mL). Erythrocytes (10^8 cells/mL) were maintained for each assay by dilution with phosphate buffer saline. Erythrocytes were counted on a heamacytometer. Twenty µL of each compound was mixed with red blood cells suspension (180 μL) separately. The samples were incubated at 37 °C for 35 min. The samples were placed on ice for 5 min and then agitated at 1,000 ×g for 5 min. Supernatant (100 µL) were taken from each tube and diluted 10 times with chilled (4 °C) phosphate buffered saline. Triton X-100 (0.1% v/v) was taken as a positive control and PBS was negative control and then subjected to the same process. […] The percentage RBSs lyses for each sample was calculated.

Staphylococcus aureus = test: Antibacterial activity (disc / inhibition zone) against Staphylococcus aureus; conditions: read-out: Inhibition zone, S. aureus
urease enzyme = urease enzyme (Canavalia ensiformis, UniProt P07374)
urease enzyme, sequence (P07374 whole entry, looked up): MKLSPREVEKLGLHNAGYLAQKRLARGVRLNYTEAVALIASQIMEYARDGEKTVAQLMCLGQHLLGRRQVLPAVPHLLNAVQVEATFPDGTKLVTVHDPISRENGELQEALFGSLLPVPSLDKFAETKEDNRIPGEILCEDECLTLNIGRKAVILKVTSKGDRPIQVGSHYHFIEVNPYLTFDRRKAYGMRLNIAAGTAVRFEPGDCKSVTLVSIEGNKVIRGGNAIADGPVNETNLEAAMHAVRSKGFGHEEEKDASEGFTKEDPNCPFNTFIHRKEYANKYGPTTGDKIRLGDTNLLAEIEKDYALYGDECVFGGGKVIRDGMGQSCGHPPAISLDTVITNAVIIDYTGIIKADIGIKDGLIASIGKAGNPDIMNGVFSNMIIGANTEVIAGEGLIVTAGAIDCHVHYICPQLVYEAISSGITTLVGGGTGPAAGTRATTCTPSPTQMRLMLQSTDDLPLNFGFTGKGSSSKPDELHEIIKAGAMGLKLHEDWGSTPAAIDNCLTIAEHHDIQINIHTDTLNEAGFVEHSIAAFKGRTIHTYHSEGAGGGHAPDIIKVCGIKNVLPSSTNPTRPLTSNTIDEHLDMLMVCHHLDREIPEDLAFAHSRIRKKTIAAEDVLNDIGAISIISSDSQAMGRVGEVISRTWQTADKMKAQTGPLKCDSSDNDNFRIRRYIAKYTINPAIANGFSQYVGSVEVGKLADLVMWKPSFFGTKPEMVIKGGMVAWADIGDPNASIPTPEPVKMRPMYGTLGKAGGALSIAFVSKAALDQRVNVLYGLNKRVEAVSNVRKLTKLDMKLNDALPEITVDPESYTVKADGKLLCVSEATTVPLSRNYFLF

[3] = 25 µg/mL, read-out: % Activity at 25 µg (NO scavenging)
[4] = 50 µg/mL, read-out: % Activity at 50 µg (NO scavenging)
[5] = 100 µg/mL, read-out: % Activity at 100 µg (NO scavenging)

Cc1cc(C)cc(-c2csc(C=O)c2)c1 [2g, 4-(3,5-Dimethylphenyl)thiophene-2-carbaldehyde]
zone of inhibition at 25 µg/mL (Salmonella typhi): 32.2 ± 0.11 mm
zone of inhibition at 50 µg/mL (Salmonella typhi): 61 ± 0.16 mm
zone of inhibition at 25 µg/mL (Pseudomonas aeruginosa): 25 ± 0.06 mm
zone of inhibition at 50 µg/mL (Pseudomonas aeruginosa): 56 ± 0.04 mm
zone of inhibition at 25 µg/mL (Shigella dysenteriae): 32 ± 0.01 mm
zone of inhibition at 50 µg/mL (Shigella dysenteriae): 59 ± 0.44 mm
inhibition [1, 3]: 13 ± 0.002%
inhibition [1, 4]: 28 ± 0.007%
inhibition [1, 5]: 43 ± 0.002%
zone of inhibition at 25 µg/mL (Bacillus subtilis): 36 ± 0.08 mm
zone of inhibition at 50 µg/mL (Bacillus subtilis): 56 ± 0.24 mm
melting point: 71 to 73 °C
zone of inhibition at 25 µg/mL (Escherichia coli): 22.5 ± 0.11 mm
zone of inhibition at 50 µg/mL (Escherichia coli): 44.5 ± 0.19 mm
IC50 (Gram-negative bacteria): 45.2 µg/mL (≈ 209 µM)
Haemolytic activity, percentage of lysis (Average ± SD) [2]: 4.525 ± 0.075%
zone of inhibition at 25 µg/mL (Staphylococcus aureus): 27 ± 0.08 mm
zone of inhibition at 50 µg/mL (Staphylococcus aureus): 59 ± 0.44 mm

NC(N)=S [Thiourea, thiourea, reference compound]
IC50 (urease inhibition) (urease enzyme): 27.5 µg/mL (≈ 361 µM)
%age Activity at 25 μg (urease inhibition) (urease enzyme; 25 µg/mL): 47 ± 0.007%
%age Activity at 50 μg (urease inhibition) (urease enzyme; 50 µg/mL): 77 ± 0.015%

O=Cc1cc(-c2cc(C(F)(F)F)cc(C(F)(F)F)c2)cs1 [2b, 4-(3,5-Bis(trifloromethyl)phenyl)thiophene-2-carbaldehyde]
zone of inhibition at 25 µg/mL (Salmonella typhi): 33 ± 0.2 mm
zone of inhibition at 50 µg/mL (Salmonella typhi): 63 ± 0.25 mm
zone of inhibition at 25 µg/mL (Pseudomonas aeruginosa): 42 ± 0.02 mm
zone of inhibition at 50 µg/mL (Pseudomonas aeruginosa): 67 ± 0.01 mm
zone of inhibition at 25 µg/mL (Shigella dysenteriae): 33 ± 0.05 mm
zone of inhibition at 50 µg/mL (Shigella dysenteriae): 62.4 ± 0.1 mm
IC50 (NO scavenging) [1]: 66.6 µg/mL (≈ 205 µM)
inhibition [1, 3]: 10 ± 0.02%
inhibition [1, 4]: 45 ± 0.001%
inhibition [1, 5]: 60 ± 0.021%
zone of inhibition at 25 µg/mL (Bacillus subtilis): 23 ± 0.09 mm
zone of inhibition at 50 µg/mL (Bacillus subtilis): 59 ± 0.1 mm
melting point: 95 to 97 °C
zone of inhibition at 25 µg/mL (Escherichia coli): 18 ± 0.13 mm
Haemolytic activity, percentage of lysis (Average ± SD) [2]: 5.003 ± 0.078%
zone of inhibition at 25 µg/mL (Staphylococcus aureus): 36.6 ± 0.4 mm
zone of inhibition at 50 µg/mL (Staphylococcus aureus): 62.4 ± 0.1 mm
